{
  "source": "patent US20060009425A1",
  "about": "“Oral formulations of paricalcitol” (priority 2004, published 2006)",
  "key": {"[1]": {"test_system": "serum parathyroid hormone (PTH) levels", "assay": "Phase 3 placebo-controlled TIW study, iPTH reduction (Example 6)", "assay_type": "in vivo, human", "source_text": "Methodology: This was a Phase 3, prospective, randomized, placebo-controlled, double-blind, 24-week Treatment Phase, multi-center study in CKD (Stages 3 and 4) subjects with elevated PTH levels (≧150 pg/mL). Subjects were randomized in an equal ratio (1:1) to 1 of 2 treatment groups: Paricalcitol Capsule (Group 1) and placebo (Group 2). Potential subjects underwent procedures to determine their baseline intact PTH (iPTH), calcium, and phosphorus levels for eligibility to receive treatment.\nThe study was performed in 4 parts: a Screening Visit, a Pre-Treatment Phase, a Treatment Phase, and a Follow-Up Phase. At the Screening Visit, subjects reviewed and signed the informed consent form prior to the conduct of any study-specific screening procedures. A spot urine sample was used to calculate calcium/creatinine ratio. A blood sample was drawn for iPTH, blood urea nitrogen (BUN), albumin and serum creatinine levels. […] The serum creatinine, BUN, and albumin values were used to calculate the subject's estimated glomerular filtration rate (eGFR) using a formula derived from the “Modification of Diet in Renal Disease” (MDRD) study. Subjects with a calculated eGFR of 15 to 60 mL/min were eligible to undergo Pre-Treatment Phase procedures. The Pre-Treatment Phase was 1 to 4 weeks. During this phase, subjects had 2 scheduled office visits. The office visits could have occurred at any time over a 4-week period but must have been at least 1 day apart. During these visits, subjects were to meet laboratory criteria regarding serum iPTH, calcium, and phosphorus levels. If the subject was unable to meet these criteria, he or she may have been re-screened once after 4 weeks. […] Subjects who satisfied inclusion and exclusion criteria after a minimum of 1 week in the Pre-Treatment Phase were eligible to enter the Treatment Phase. During the Treatment Phase, subjects were to self-administer study drug 3 times weekly, on Monday, Wednesday and Friday, for a total of 24 weeks. The initial dose was 2 or 4 mcg (depending on baseline iPTH levels). Procedures to be performed during the Treatment Phase included vital signs, chemistry and hematology, urinary pyridinoline, urinary deoxypyridinoline, serum bone-specific alkaline phosphatase, serum osteocalcin, urinalysis, spot urine for calcium/creatinine ratio, and recording of adverse events and concurrent medications. Serum iPTH, calcium, phosphorus, and albumin were measured every 2 weeks. Dose adjustments were to be made according to these chemistry results for iPTH, calcium, and phosphorus. Doses may have been increased in 2 mcg increments every 4 weeks. Dose reductions were to occur according to a protocol-specified algorithm. However, dosing could have been adjusted any time if, in the judgment of the Investigator, a risk to subject safety existed.\nEfficacy: The primary efficacy endpoint was the achievement of 2 consecutive >30% decreases from baseline iPTH levels.\nThe secondary efficacy analyses include change and percent change from baseline analyses in iPTH and change from baseline analyses in biochemical bone activity markers.\nThe Intent-To-Treat population (Full Analysis Set) was defined as all randomized subjects with a baseline iPTH and at least 2 on-treatment iPTH measurements. This population was used in the primary efficacy analysis."}, "[2]": {"assay": "Phase 3 TIW study, safety (Example 6)", "protocol": "Additionally, safety was assessed by the incidence of adverse events, the change from baseline in chemistry, hematology and urinalysis laboratory variables, the change from baseline in subject vital signs, and progressive changes in renal function observed via changes in eGFR.\nAll randomized subjects who received at least 1 dose of study drug were used in safety analyses. […] This comparison was performed using a Fisher's exact test. Secondary safety analyses were performed comparing changes/percent changes from baseline between the paricalcitol and placebo treatment groups using a one-way ANOVA with treatment group as the factor for the following variables: hematology, complete chemistry, and urinalysis variables; 24-hour urine collections, eGFR, urinary calcium/creatinine ratio, cardiovascular markers, and vital signs. Secondary safety analyses also consisted of an analysis of “treatment-emergent” adverse events (i.e., adverse events with an onset date on or after the date the first dose of study drug was taken). Adverse events were summarized by body system and COSTART term according to the COSTART V adverse event-coding dictionary. Comparisons of the percentage of subjects experiencing an adverse event between the paricalcitol and placebo treatment groups were performed using a Fisher's exact test."}},
  "data": [
    {"smiles": "C[C@H](/C=C/[C@H](C)C(C)(C)O)[C@H]1CC[C@H]2/C(=C/C=C3C[C@@H](O)C[C@H](O)C3)CCC[C@]12C", "note": "[Paricalcitol, 19-nor-1α,3β,25-trihydroxy-9,10-secoergosta-5(Z); 7(E),22(E)-triene]", "values": [
      {"measurement": "subjects with 4 consecutive ≧30% decreases from baseline in iPTH", "setting": "[1]; 26/36, exploratory analysis", "value": 72, "unit": "%"},
      {"measurement": "subjects with 2 consecutive >30% decreases from baseline in iPTH", "setting": "[1]; 33/36, TIW, 24 weeks, CKD Stages 3 and 4", "value": 92, "unit": "%"},
      {"measurement": "30% mean reduction in iPTH occurred by", "setting": "[1]; TIW", "value": "≤ 9", "unit": "Week"},
      {"measurement": "mean change from baseline in iPTH at the Final Visit", "setting": "[1]; TIW, 24 weeks", "value": -58.1, "unit": "pg/mL"},
      {"measurement": "mean change from baseline in iPTH at the Last On-Treatment Visit", "setting": "[1]; TIW, 24 weeks", "value": -95.7, "unit": "pg/mL"},
      {"measurement": "percent decrease in iPTH at the Final Visit", "setting": "[1]; TIW, 24 weeks", "value": 19.2, "unit": "%"},
      {"measurement": "percent decrease in iPTH at the Last On-Treatment Visit", "setting": "[1]; TIW, 24 weeks", "value": 33.0, "unit": "%"},
      {"measurement": "maximum decrease from baseline in iPTH", "setting": "[1]; observed at Week 19", "value": "−46.0", "unit": "%"},
      {"measurement": "safety and tolerability", "setting": "[2]; CKD (Stages 3 and 4) subjects", "value": "safe and well tolerated"},
      {"measurement": "adverse events considered not related to study drug administration", "setting": "[2]; TIW, 24 weeks", "value": 85, "unit": "%"},
      {"measurement": "adverse events mild or moderate in severity", "setting": "[2]; TIW, 24 weeks", "value": 88, "unit": "%"},
      {"measurement": "subjects with treatment-emergent adverse events", "setting": "[2]; TIW, 24 weeks", "value": 79, "unit": "%"},
      {"measurement": "subjects reporting serious adverse events", "setting": "[2]; Treatment and Follow-Up Phases", "value": 9, "unit": "subjects"},
      {"measurement": "deaths", "setting": "[2]; cardiopulmonary arrest, considered not related to study drug", "value": 1, "unit": "subject"},
      {"measurement": "adverse event incidence: constipation", "setting": "[2]; in vivo", "value": 8, "unit": "%"},
      {"measurement": "adverse event incidence: depression", "setting": "[2]; in vivo", "value": 8, "unit": "%"},
      {"measurement": "adverse event incidence: headache", "setting": "[2]; in vivo", "value": 8, "unit": "%"},
      {"measurement": "adverse event incidence: hypertension", "setting": "[2]; in vivo", "value": 8, "unit": "%"},
      {"measurement": "adverse event incidence: infection", "setting": "[2]; in vivo", "value": 8, "unit": "%"},
      {"measurement": "adverse event incidence: pain", "setting": "[2]; in vivo", "value": 10, "unit": "%"},
      {"measurement": "adverse event incidence: pharyngitis", "setting": "[2]; in vivo", "value": 10, "unit": "%"},
      {"measurement": "adverse event incidence: rhinitis", "setting": "[2]; in vivo", "value": 8, "unit": "%"},
      {"measurement": "adverse event incidence: vertigo", "setting": "[2]; in vivo", "value": 8, "unit": "%"},
      {"measurement": "subjects terminated prematurely due to adverse events", "setting": "[2]; in vivo", "value": 1, "unit": "subjects"},
      {"measurement": "subjects who developed clinically meaningful hypercalcemia (at least 2 consecutive calcium values >10.5 mg/dL)", "setting": "[2]; in vivo", "value": "1/38"}
    ]}
  ]
}
